Measured values taken from ChEMBL document CHEMBL2417405, “Synthesis, enzyme kinetics and computational evaluation of N-(β-D-glucopyranosyl) oxadiazolecarboxamides as glycogen phosphorylase inhibitors” (Bioorg Med Chem, 2013).
Calls of active or inactive are those of the source. The calls are words filed in the database; no cut-off is given here.

target: T1, Glycogen phosphorylase, muscle form (Oryctolagus cuniculus) (UniProt P00489); assay: Inhibition of rabbit skeletal muscle glycogen phosphorylase bat 625 uM by Lineweaver-Burk plot method
T1 sequence (whole entry): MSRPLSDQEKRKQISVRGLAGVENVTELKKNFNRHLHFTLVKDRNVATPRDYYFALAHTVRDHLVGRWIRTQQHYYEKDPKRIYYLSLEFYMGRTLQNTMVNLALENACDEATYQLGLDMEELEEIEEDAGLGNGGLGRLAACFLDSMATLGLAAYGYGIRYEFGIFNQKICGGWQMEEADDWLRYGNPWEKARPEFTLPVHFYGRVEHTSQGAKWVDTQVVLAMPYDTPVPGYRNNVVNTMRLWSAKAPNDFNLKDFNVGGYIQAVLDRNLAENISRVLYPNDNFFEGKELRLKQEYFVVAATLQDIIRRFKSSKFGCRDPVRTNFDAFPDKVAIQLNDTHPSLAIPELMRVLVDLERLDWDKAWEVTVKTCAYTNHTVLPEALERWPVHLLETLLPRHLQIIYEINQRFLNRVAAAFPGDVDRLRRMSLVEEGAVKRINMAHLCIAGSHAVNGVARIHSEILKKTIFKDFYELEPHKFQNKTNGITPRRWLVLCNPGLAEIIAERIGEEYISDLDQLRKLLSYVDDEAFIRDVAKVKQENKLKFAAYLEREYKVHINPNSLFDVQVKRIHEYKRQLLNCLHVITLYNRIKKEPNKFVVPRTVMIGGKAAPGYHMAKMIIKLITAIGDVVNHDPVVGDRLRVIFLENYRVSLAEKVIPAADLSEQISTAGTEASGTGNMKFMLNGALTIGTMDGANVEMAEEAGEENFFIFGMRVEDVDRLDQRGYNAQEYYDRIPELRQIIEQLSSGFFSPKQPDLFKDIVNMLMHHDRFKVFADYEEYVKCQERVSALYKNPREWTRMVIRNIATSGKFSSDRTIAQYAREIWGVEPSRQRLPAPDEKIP

| inhibition | SMILES |
| --- | --- |
| inactive | O=C(N[C@@H]1O[C@H](CO)[C@@H](O)[C@H](O)[C@H]1O)c1cn(-c2ccc3ccccc3c2)nn1 |
| inactive | O=C(N[C@@H]1O[C@H](CO)[C@@H](O)[C@H](O)[C@H]1O)c1nc(-c2ccc3ccccc3c2)no1 |
| inactive | O=C(N[C@@H]1O[C@H](CO)[C@@H](O)[C@H](O)[C@H]1O)c1cc(-c2ccc3ccccc3c2)no1 |
| inactive | O=C(N[C@@H]1O[C@H](CO)[C@@H](O)[C@H](O)[C@H]1O)c1noc(-c2ccc3ccccc3c2)n1 |

target: T2, Glycogen phosphorylase, muscle form (Oryctolagus cuniculus, UniProt P00489)
T2 sequence (P00489 whole entry): T1 sequence (whole entry)
Description: Inhibition of rabbit skeletal muscle glycogen phosphorylase b by Lineweaver-Burk plot method

| SMILES | Ki |
| --- | --- |
| O=C(N[C@@H]1O[C@H](CO)[C@@H](O)[C@H](O)[C@H]1O)c1nnc(-c2cccc3ccccc23)o1 | 172 µM |
| O=C(N[C@@H]1O[C@H](CO)[C@@H](O)[C@H](O)[C@H]1O)c1noc(-c2ccccc2)n1 | 136 µM |
| O=C(N[C@@H]1O[C@H](CO)[C@@H](O)[C@H](O)[C@H]1O)c1nc(-c2ccccc2)no1 | 104 µM |
| O=C(N[C@@H]1O[C@H](CO)[C@@H](O)[C@H](O)[C@H]1O)c1nc(-c2cccc3ccccc23)no1 | 145 µM |
| O=C(N[C@@H]1O[C@H](CO)[C@@H](O)[C@H](O)[C@H]1O)c1nnc(-c2ccc3ccccc3c2)o1 | 30 µM |
| O=C(N[C@@H]1O[C@H](CO)[C@@H](O)[C@H](O)[C@H]1O)c1noc(-c2cccc3ccccc23)n1 | 33 µM |
| O=C(N[C@@H]1O[C@H](CO)[C@@H](O)[C@H](O)[C@H]1O)c1cc(-c2ccccc2)no1 | 172 µM |
| O=C(N[C@@H]1O[C@H](CO)[C@@H](O)[C@H](O)[C@H]1O)c1cn(-c2ccccc2)nn1 | 75 µM |
| O=C(N[C@@H]1O[C@H](CO)[C@@H](O)[C@H](O)[C@H]1O)c1nnc(-c2ccccc2)o1 | 545 µM |
